Assay [1] relates to luciferase-expressing MDA-MB-231 cells. The assay can be described thus: In vivo anticancer study, xenograft model in female nude mice. The following applies: 20 mg/kg/d APN inhibitor + 10 mg/kg/3 days PTX; 3 weeks; n = 4. On the procedure:
To evaluate the in vivo anticancer potency of the combination of PTX-APN inhibitor, cancer xenograft model was established by inoculation of luciferase- expressing MDA-MB-231 cells to female nude mice. About 1×10^7 MDA-MB-231 cells were injected subcutaneously into the right fat pad of the fourth mammary gland of the mice. […] Significant tumor size variations were observed among different groups ( Figures 5A, B ). […] Moreover, no clear signs of toxicity in liver and spleen were detected in the sacrificed mice.
Female Nude mice aged 3 weeks were purchased from Hunan SJA Experimental Animal Company and raised under SPF aseptic conditions. About 1×10^7 luciferase overexpressing MDA-MB-231 cells were injected subcutaneously into the right fat pad of the fourth mammary gland of each mouse. […] PBS group animals received PBS via intraperitoneal injection, while 10 mg/kg/3 days of PTX was administered to animals in the PTX group. […] After 3 weeks of administration, each mouse was intraperitoneally injected with 200uL of fluorescein substrate (d-fluorescein potassium salt, 150mg/kg), and then anesthetized with isoflurane. In vivo fluorescence imaging system (IVIS Spectrum, PerkinElmer) and SlideBook4.0 software were utilized for the result analysis. After the imaging analysis, mice were sacrificed and dissected for the detection of tumor size and calculation of liver/spleen indexes. All animal experiments were approved by the Animal Care and Use Committee of Weifang Medical University.

For assay [2], the system named is CD13 (APN) expression in MDA-MB-231 cells. The assay can be described thus: Flow cytometry of APN expression. The following applies: 48 h. Type of assay: cell-based, human. The procedure: (§1) The cells were seeded in 6-well plates (4 × 10^5 cells/well) and treated with tested compounds for 48 h. Then, cells were collected into 1.5 mL EP tubes, washed twice with PBS, and centrifuged at 2500rpm for 5minutes. Cells were resuspended with 100μlof PBS, then 2μL/tube of APN antibody was added, followed by incubation in dark for 30 minutes at 4°C. Then the cells were subjected to flow cytometry (FACSAria II, Becton-Dickinson) for the expression of APN.

Assay [3] has as its system CD13 (APN) expression in MDA-MB-468 cells. The assay is described as follows: Flow cytometry of APN expression. Conditions: 48 h. Type of assay: cell-based, human. On the procedure:
as §1
On the technique in general: In flow cytometry, cells or beads pass a laser one at a time.

The target in assay [4] is Aminopeptidase N (APN, CD13) (Homo sapiens, UniProt P15144). The assay can be described thus: APN enzyme inhibitory assay, supernatant of K562-CD13 cells as enzyme source, L-leucine-p-nitro anilide substrate.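 As to all read-outs here: substrate L-leucine-p-nitro anilide used at 1.6 mM, with enzyme from sonicated APN-overexpressing K562 cell lysate supernatant, run in 96-well plates.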 The following applies: for inhibition at 30 µM: read-out: Inhibitory rate (%).
Aminopeptidase N (APN, CD13), sequence (P15144 whole entry): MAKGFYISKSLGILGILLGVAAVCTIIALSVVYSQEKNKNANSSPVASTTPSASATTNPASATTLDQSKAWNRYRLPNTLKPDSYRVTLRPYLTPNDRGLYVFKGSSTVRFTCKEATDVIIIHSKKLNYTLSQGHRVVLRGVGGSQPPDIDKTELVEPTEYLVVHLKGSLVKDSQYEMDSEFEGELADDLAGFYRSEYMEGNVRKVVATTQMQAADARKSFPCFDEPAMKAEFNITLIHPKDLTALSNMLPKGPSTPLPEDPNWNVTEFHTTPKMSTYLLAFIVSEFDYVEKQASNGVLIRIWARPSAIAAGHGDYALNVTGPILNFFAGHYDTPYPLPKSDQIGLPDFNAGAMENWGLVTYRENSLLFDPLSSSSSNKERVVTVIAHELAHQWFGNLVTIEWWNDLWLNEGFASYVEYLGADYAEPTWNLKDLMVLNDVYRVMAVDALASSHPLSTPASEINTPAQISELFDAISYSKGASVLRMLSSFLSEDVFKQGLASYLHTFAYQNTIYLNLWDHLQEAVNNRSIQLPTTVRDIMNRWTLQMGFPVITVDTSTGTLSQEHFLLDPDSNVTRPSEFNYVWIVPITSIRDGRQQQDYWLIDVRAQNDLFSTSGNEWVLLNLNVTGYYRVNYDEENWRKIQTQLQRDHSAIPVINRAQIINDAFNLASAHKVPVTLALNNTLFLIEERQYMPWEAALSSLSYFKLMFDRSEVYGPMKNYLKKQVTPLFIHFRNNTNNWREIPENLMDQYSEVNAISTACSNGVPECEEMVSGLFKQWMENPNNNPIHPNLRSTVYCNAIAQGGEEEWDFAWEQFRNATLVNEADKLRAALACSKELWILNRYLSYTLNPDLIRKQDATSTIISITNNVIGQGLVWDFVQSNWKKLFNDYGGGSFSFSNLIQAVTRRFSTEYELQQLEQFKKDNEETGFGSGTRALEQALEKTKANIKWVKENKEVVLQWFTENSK
Description: In the enzyme inhibitory assay, K562-CD13 monoclonal cells were used as APN enzyme source as described in our previous work ([27]).
K562 cells with overexpression of APN were added into PBS for ultrasonic crushing, centrifuged for 10 minutes, and supernatant was taken as enzyme source and added into 96-well plate. Different concentrations of compounds were added subsequently, and 1.6 mM L-leucine-p-nitro anilide was used as substrate. After 30 minutes of reaction, the APN enzyme activity was measured at 405 nm absorbance. The inhibition rate of APN activity was analyzed by the formula (Od control OD tested)/Od control 100%.
In the next assay the test system is MDA-MB-468 cells. The assay can be described thus: Spheroid-formation assay. Format: cell-based, human. The following applies: 1 nM PTX + 1 µM APN inhibitor, 7 days. On the procedure:
(§2) Cancer stem cells (CSCs) play an important role in the resistance of cancer cells to chemotherapeutic drugs. APN has been reported to be a therapeutic target in human cancer stem cells ([18]). Therefore, the CSC based test was performed in the present study. Colony-formation assay and spheroid-formation assay are two commonly used methods to assess the capacity of CSCs in vitro. In the spheroid-formation assay, MDA-MB-231 and MDA-MB-468 cells were dispersed into single cells, inoculated into low-adherence 6-well plates, and added with stem cell sphere medium. The stem cell spheres became visible after 5-6 days incubation. […] It is known that mRNA levels of the stem cell biomarkers OCT-4, SOX-2 and Nanog are associated with the characteristics of TNBC stem cells ([30]). Therefore, RT-PCR was performed on the TNBC cells to detect the mRNA levels of these markers.
(§3) MDA-MB-231 cells and MDA-MB-468 cells in logarithmic growth phase were collected, stem cell sphere culture medium without serum (containing 50X B-27Supplement,100X N-2 Supplement,20 μg/L epidermal growth factor (EGF), 20µg/L insulin-like growth factor (IGF-1), 10 μg/L fibroblast growth factor (b-FGF), 20X Knock Out SR, 2mM L-Glutamine, 5mg/L Heparin sodium, 1X PENICILLIN-STREPTOMYCIN and DMEM: F12 (1:1) medium was added for the re-suspension and fully blown into single-cell suspension. The cells were diluted to 5,000/2 mL, with stem cell sphere culture medium, and cultured in a 37°C, 5% CO2 cell incubator. The number of stem cell spheres were observed every day. […]

Another assay deals with MDA-MB-231 cells. The assay is described as follows: Spheroid-formation assay. Type of assay: cell-based, human. The following applies: 1 nM PTX + 1 µM APN inhibitor, 7 days. The procedure:
as §2, §3

Turning to `CC(C)C[C@H](NC(=O)[C@@H](O)[C@H](N)Cc1ccccc1)C(=O)O` [Bestatin, reference compound], the “anticancer effect of PTX (tumor weight) compared with single PTX administration group” value in assay [1] is “improved the anticancer effect of PTX”. Moreover, the “inhibitory rate (tumor), in combination with PTX” value in assay [1] came to 10.63%. The “APN expression, combination with PTX compared with paclitaxel alone” value in assay [2] and in assay [3] was “decreased APN expression” each time. The inhibition at 30 µM in assay [4] was found to be 53.9 ± 0.77%. Also, the “number of tumor spheres formed, compared with control and PTX alone” value in the assay with MDA-MB-468 cells and with MDA-MB-231 cells was “significant decrease in the number of tumor spheres” in each case.
For `COc1ccccc1C(=O)N1CCc2c(n(Cc3ccc(C(=O)NO)cc3)c3ccccc23)C1` [Compound D7, N-hydroxy-4-((2-(2-methoxybenzoyl)-1,2,3,4-tetrahydro-9H-pyrido[3,4-b]indol-9-yl)methyl)benzamide], the inhibition at 30 µM in assay [4] was found to be 17.9 ± 0.84%.
On the same count and under the same terms, with `O=C(NO)c1ccc(Cn2c3c(c4ccccc42)CCN(C(=O)c2cccc(Br)c2)C3)cc1` [Compound D22, 4-((2-(3-bromobenzoyl)-1,2,3,4-tetrahydro-9H-pyrido[3,4-b]indol-9-yl)methyl)-N-hydroxybenzamide] the figure was 19.2 ± 3.7%; with `O=C(NO)c1ccc(Cn2c3c(c4ccccc42)CCN(C(=O)c2ccc(F)cc2)C3)cc1` [Compound D11, 4-((2-(4-fluorobenzoyl)-1,2,3,4-tetrahydro-9H-pyrido[3,4-b]indol-9-yl)methyl)-N-hydroxybenzamide], 35 ± 4.57%; with `O=C(Cn1c2c(c3ccccc31)CCN(C(=O)c1ccc(C(F)(F)F)cc1)C2)NO` [Compound D1, N-hydroxy-2-(2-(4-(trifluoromethyl)benzoyl)-1,2,3,4-tetrahydro-9H-pyrido[3,4-b]indol-9-yl)acetamide], 35 ± 1.51%.
One may read the IC50 as the midpoint of a concentration-inhibition curve. A low value points to greater potency. For the compound `O=C(Cn1c2c(c3ccccc31)CCN(C(=O)c1c(F)cccc1Cl)C2)NO` [Compound D29, 2-(2-(2-chloro-6-fluorobenzoyl)-1,2,3,4-tetrahydro-9H-pyrido[3,4-b]indol-9-yl)-N-hydroxyacetamide], in assay [4], it took 9.23 ± 0.67 µM to reach half-maximal inhibition (IC50) and the inhibition at 30 µM came out at 60 ± 4.95%.
In the case of `O=C(NO)c1ccc(Cn2c3c(c4ccccc42)CCN(C(=O)c2ccccc2F)C3)cc1` [Compound D15, 4-((2-(2-fluorobenzoyl)-1,2,3,4-tetrahydro-9H-pyrido[3,4-b]indol-9-yl)methyl)-N-hydroxybenzamide], the inhibition at 30 µM in assay [4] was determined as 28.7 ± 2.75%.
The same measure, in the same setting: with `O=C(NO)c1ccc(Cn2c3c(c4ccccc42)CCN(C(=O)c2ccccc2C(F)(F)F)C3)cc1` [Compound D6, N-hydroxy-4-((2-(2-(trifluoromethyl)benzoyl)-1,2,3,4-tetrahydro-9H-pyrido[3,4-b]indol-9-yl)methyl)benzamide] the figure was 15.3 ± 3.66%; with `CCCc1ccc(C(=O)N2CCc3c(n(Cc4ccc(C(=O)NO)cc4)c4ccccc34)C2)cc1` [Compound D27, N-hydroxy-4-((2-(4-propylbenzoyl)-1,2,3,4-tetrahydro-9H-pyrido[3,4-b]indol-9-yl)methyl)benzamide], 20.4 ± 5.78%.
Still for that read-out and setting: under `CCc1ccc(C(=O)N2CCc3c(n(Cc4ccc(C(=O)NO)cc4)c4ccccc34)C2)cc1` [Compound D19, 4-((2-(4-ethylbenzoyl)-1,2,3,4-tetrahydro-9H-pyrido[3,4-b]indol-9-yl)methyl)-N-hydroxybenzamide] stands 19.5 ± 4.22%; under `O=C(Cn1c2c(c3ccccc31)CCN(C(=O)c1ccc(F)cc1)C2)NO` [Compound D10, 2-(2-(4-fluorobenzoyl)-1,2,3,4-tetrahydro-9H-pyrido[3,4-b]indol-9-yl)-N-hydroxyacetamide], 42.5 ± 1.42%; under `O=C(NO)c1ccc(Cn2c3c(c4ccccc42)CCN(C(=O)c2ccc(F)cc2F)C3)cc1` [Compound D23, 4-((2-(2,4-difluorobenzoyl)-1,2,3,4-tetrahydro-9H-pyrido[3,4-b]indol-9-yl)methyl)-N-hydroxybenzamide], 65 ± 5.97%.
The same measure, in the same setting: with `O=C(NO)c1ccc(Cn2c3c(c4ccccc42)CCN(C(=O)c2cccc(F)c2)C3)cc1` [Compound D13, 4-((2-(3-fluorobenzoyl)-1,2,3,4-tetrahydro-9H-pyrido[3,4-b]indol-9-yl)methyl)-N-hydroxybenzamide] the figure was 13.2 ± 0.4%.
`O=C(Cn1c2c(c3ccccc31)CCN(C(=O)c1ccccc1)C2)NO` [Compound D3, 2-(2-benzoyl-1,2,3,4-tetrahydro-9H-pyrido[3,4-b]indol-9-yl)-N-hydroxyacetamide]: in assay [4], the IC50 amounted to 6.24 ± 0.43 µM and the inhibition at 30 µM was 74.4 ± 6.42%.

The values are drawn from PMC9168271, “Discovery of Novel Tetrahydro-β-carboline Containing Aminopeptidase N Inhibitors as Cancer Chemosensitizers” (Frontiers in Oncology, 2022).
